Results: patent publication US20210038730A1, “PEPTIDE NANOFIBERS” (UNIVERSITY OF PORTSMOUTH HIGHER EDUCATION CORPORATION, priority 2018, published 2021)

Experiments:
SC-1800 cells = test: Cytotoxicity (MTT) in cerebral astrocytes; assay type: cell-based, human; conditions: 3.5-140 μM, 4 and 24 hours
Description: Human brain microvessel endothelial cells (hCMEC/D3) and cerebral astrocytes (SC-1800) were maintained in a humidified atmosphere of 5% CO2, and the medium was refreshed every 2-3 days. hCMEC/D3 cells were cultured in endothelial basal medium-2 (EBM-2) supplemented with the EGM-2 Bullet Kit and 2% (v/v) human serum. SC-1800 were cultured in astrocytes basal medium (ABM) supplemented with AGM Bullet Kit and 3% (v/v) human serum. […] Subsequently, complete growth medium (4 mL) was added and cells were centrifuged using a C-28A centrifuge (Boeco, Hamburg, Germany) at 1,000 rpm for 5 minutes. Supernatant was discarded, and pellet was re-suspended in 1 mL of medium. The cell number was counted using Trypan Blue Exclusion Assay in the Countess II Automated Cell Counter (Thermo Scientific, Paisley, UK). hCMEC/D3 and SC-1800 cells were seeded at 20,000 cells/cm^2 in complete medium and allowed to attach overnight. […] Cell metabolic activity was measured after 4 and 24 hours using (3-(4,5)-dimethylthiazol-2-yl)-2,5-diphenyltetrazolium bromide ([…]) assay. […] Subsequently, DMSO (100 μL) was added to dissolve the formazan crystals and absorbance was measured at 570 and 690 nm. Metabolic activity was calculated by subtracting the absorbance values at 690 nm to 570 nm to remove background, and dividing the values by the control to express as a percentage (%) of the control using the equation below. […]

U-87 MG cells = test: Cell cycle (propidium iodide flow cytometry); assay type: cell-based, human
Description: In vitro antitumour effects of TPGnRH and PAX-loaded TPGnRH were assessed in U-87 MG cells, UP-007, UP-029, SEBTA-023 MDA-MD-231 [triple negative (ER^−, PR—, HER2^−) breast cancer cell line] and SK-OV-3 (human ovarian carcinoma with a low expression of GnRH-R). Cells were seeded at 1,400 cells/cm^2 and allowed to attach and grow for 3 days. In experiments with TPGnRH nanofibers alone (to obtain the IC50 value in each cell line), cells were treated with medium supplemented with the peptide solutions in PBS (0.7 to 700 μM) to achieve a final concentration of 0.07 to 70 μM per well. Media was replaced by fresh media every two days for 6 days. […] On day 4, PAX-loaded TPGnRH nanofibers containing 1 nM of PAX and 7 or 35 μM of TPGnRH were added and the effect on cell viability, proliferation, cell cycle, and apoptosis was assessed on day 6. Only for the MDA-MB-231 cells, on day 4, PAX-loaded TPGnRH nanofibers containing 10 nM of PAX and 7 or 35 μM of TPGnRH were added and the effect on cell viability, proliferation, cell cycle, and apoptosis was also assessed on day 6. […] Cell metabolic activity was measured using MTT assay. […] Afterwards, dimethyl sulfoxide (100 μL) was added to the wells to dissolve the formazan crystals and the absorbance was measured at 570 and 690 nm. […] Cells were incubated with BrdU for 24 hours before the end of the pre-determined time-points. […]

[1] = Critical aggregation concentration, thioflavin T assay; assay type: physicochemical; conditions: PBS pH 7.4
Description: Critical aggregation concentration (CAC) of TPGnRH was determined using pyrene ^1-4 and thioflavin T ^5, 6. The peptide solutions (3.5-700 μM) were prepared in phosphate-buffered saline (PBS, 0.01 M, pH 7.4) either by a dilution of a stock solution at 700 μM or solutions prepared at the required concentration. In the pyrene assay, pyrene was dissolved in methanol at 250 μM, dispersed into a black 96-well plate, and methanol was evaporated overnight. TPGnRH solutions were added to pyrene and incubated at 37° C. for 24 hours under stirring. Fluorescence spectra was recorded λex at 334 nm. For the thioflavin T assay, peptide solutions were added to freshly prepared thioflavin Tat 50 μM. All peptide samples were incubated during 5 minutes at room temperature and fluorescence was measured at λex at 450 nm and λem at 482 nm.
PAX:TPGnRH formulation at a molar ratio 1:7.36 was diluted in PBS (0.01 M, pH 7.4) from 22,000 to 7 μM of TPGnRH. Diluted formulations (20 μL) were added to 80 μL of Thioflavin T at 50 μM, incubated for 5 minutes at room temperature, and fluorescence was measured at λex 450 and λem 482 in a black 96-well plate using the Synergy H1 Microplate Reader (BioteK, Vermont, USA).

CCCCCCCCCCCCCCCC(=O)Oc1ccc(C[C@H](NC(=O)[C@H](CO)NC(=O)[C@H](Cc2c[nH]c3ccccc23)NC(=O)[C@H](Cc2c[nH]cn2)NC(=O)[C@@H](N)CCC(=O)O)C(=O)NCC(=O)N[C@@H](CC(C)C)C(=O)N[C@@H](CCCNC(=N)N)C(=O)N2CCC[C@H]2C(=O)NCC(N)=O)cc1 [TPGnRH, Tyrosine (O-Palmitoyl)-Glu-GnRH]
cytotoxicity (metabolic activity, MTT) (SC-1800 cells): no cytotoxicity | effect on cell cycle (U-87 MG cells; >7 μM, every two days, 6 days of treatment): cell cycle arrest at the G2/M phase | percentage of cells at G2/M (U-87 MG cells; day 6, TPGnRH alone at 35 μM or TPGnRH 4 days then one dose of PAX-loaded TPGnRH): 21.81±3.98% | minimal CAC (self-assembly into long-axial nanofibers) [1]: 135 µM
